{"source": "paper PMC4321816", "about": "(Chemistry & biology, 2011)", "key": {"[1]": {"biological_target": "T1, PhnA (phosphonoacetate hydrolase; PhnA-N-His) (Sinorhizobium meliloti, UniProt Q92UV8, T68A)", "T1 sequence (Q92UV8 1-424 T68A)": "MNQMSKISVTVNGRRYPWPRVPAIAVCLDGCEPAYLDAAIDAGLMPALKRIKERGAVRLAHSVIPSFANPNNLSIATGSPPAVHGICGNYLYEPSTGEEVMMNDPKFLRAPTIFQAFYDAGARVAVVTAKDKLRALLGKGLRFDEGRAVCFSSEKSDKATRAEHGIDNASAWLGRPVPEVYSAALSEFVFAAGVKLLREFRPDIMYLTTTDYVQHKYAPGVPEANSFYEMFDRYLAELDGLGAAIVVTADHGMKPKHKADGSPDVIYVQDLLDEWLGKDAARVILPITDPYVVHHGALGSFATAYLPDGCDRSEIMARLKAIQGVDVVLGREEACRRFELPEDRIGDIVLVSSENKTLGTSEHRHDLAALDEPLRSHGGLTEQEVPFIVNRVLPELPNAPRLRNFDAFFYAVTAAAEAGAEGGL", "assay": "co-crystal structure, […] Å", "type": "binding", "details": "with 2 mM ZnCl2; active site, phosphonate at M2, carboxylate at M1"}, "[2]": {"biological_target": "T2, PhnA (phosphonoacetate hydrolase; PhnA-N-His) (Sinorhizobium meliloti, UniProt Q92UV8)", "T2 sequence (Q92UV8 1-424)": "T1 sequence (Q92UV8 1-424 T68A) with A68T", "details": "formed by turnover of phosphonoacetate; bidentate to metal M1"}, "[3]": {"biological_target": "T2, PhnA (phosphonoacetate hydrolase; PhnA-N-His)", "assay": "co-crystal structure, […] Å", "type": "binding", "details": "covalent; transition state mimic on Thr68, di-zinc active site"}}, "note": "Substitutions are numbered along the chain they refer to."}
{"smiles": "O=C(O)CP(=O)(O)O", "note": "[phosphonoacetate]", "values": [{"measurement": "co-crystal structure, 2.0 Å", "setting": "[1]", "value": "Crystals for the T68A mutant showed robust density for PnA in the active site"}]}
{"smiles": "CC(=O)O", "note": "[acetate]", "values": [{"measurement": "crystal structure, 2.0 Å, crystals soaked with phosphonoacetate", "setting": "[2]", "value": "electron density consistent with an acetate ion bound to the M1 metal ion"}]}
{"smiles": "[O]=[V]([OH])([OH])[OH]", "note": "[vanadate]", "values": [{"measurement": "co-crystal structure, 1.8 Å (Table 1)", "setting": "[3]", "value": "we have determined the co-crystal structure of a covalent complex with orthovanadate"}]}
